Measurements taken from patent publication US8158628B2, “Sulfonylated 1,2,3,4-tetrahydropyrrolo[1,2-a]pyrazine compounds and their use as pharmaceuticals” (Gruenenthal GmbH, priority 2009, dated 2012).

What was measured:
B1R of the rat = molecular target: T1, B1R of the rat (Rattus norvegicus, UniProt P97583); assay: FLIPR Ca2+ functional assay, B1R antagonism, rat B1R in CHO K1 cells; format: cell-based; settings: test substance 10 μM; rB1R CHO K1 cells; agonist Des-Arg9 bradykinin at EC80; % of maximum achievable inhibition
T1 construct: expressed in transfected cells; host or cells: CHO K1 cells (Chinese hamster ovary), stably transfected
T1 sequence (P97583 1-337): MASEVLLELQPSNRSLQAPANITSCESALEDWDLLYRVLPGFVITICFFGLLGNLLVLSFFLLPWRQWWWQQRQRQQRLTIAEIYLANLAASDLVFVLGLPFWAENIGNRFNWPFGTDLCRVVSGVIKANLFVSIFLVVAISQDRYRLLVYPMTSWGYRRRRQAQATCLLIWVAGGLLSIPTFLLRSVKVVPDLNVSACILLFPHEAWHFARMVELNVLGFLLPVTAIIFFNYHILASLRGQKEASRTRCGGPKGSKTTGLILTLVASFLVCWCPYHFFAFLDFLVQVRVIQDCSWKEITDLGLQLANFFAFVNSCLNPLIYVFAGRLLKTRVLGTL
Summary of the method: (§1)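 Stably transfected CHO K1 cells loaded with Fluo-4; Ca2+ fluorescence read on FLIPR (ex 488/em 540 nm). Compound preincubated 10-20 min, then agonist at EC80: Lys-Des-Arg9 bradykinin (human) or Des-Arg9 bradykinin (rat). % inhibition vs maximal inhibition; IC50 from concentration series, n=2-3, N>=2.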

human B1R = molecular target: T2, human B1R (Homo sapiens, UniProt P46663); assay: FLIPR Ca2+ functional assay, B1R antagonism, human B1R in CHO K1 cells; format: cell-based; settings: test substance 10 μM; hB1R CHO K1 cells; agonist Lys-Des-Arg9 bradykinin at EC80; % of maximum achievable inhibition
T2 construct: expressed in transfected cells; host or cells: CHO K1 cells (Chinese hamster ovary), stably transfected
T2 sequence (P46663 1-353): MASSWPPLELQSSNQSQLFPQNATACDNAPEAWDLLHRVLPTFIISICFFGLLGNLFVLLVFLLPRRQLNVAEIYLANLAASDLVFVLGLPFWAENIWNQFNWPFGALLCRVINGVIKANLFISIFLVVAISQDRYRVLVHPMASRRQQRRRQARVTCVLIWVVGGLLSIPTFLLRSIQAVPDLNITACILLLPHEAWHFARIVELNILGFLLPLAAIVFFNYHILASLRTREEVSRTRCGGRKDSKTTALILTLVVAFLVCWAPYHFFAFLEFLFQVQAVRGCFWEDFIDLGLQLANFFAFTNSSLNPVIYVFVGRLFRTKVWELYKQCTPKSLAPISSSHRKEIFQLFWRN
Summary of the method: as §1

| SMILES | inhibition at 10 µM (B1R of the rat) [%] | inhibition at 10 µM (human B1R) [%] |
| --- | --- | --- |
| Cc1ccc(S(=O)(=O)N2CCn3cccc3C2CC(=O)NC2CCCc3cc(CN(C)C(C)(C)C)ccc32)cc1 (stereo not shown) [Example 74, N-[6-[(tert-Butyl-methyl-amino)-methyl]-1,2,3,4-tetrahydro-naphthalen-1-yl]-2-[2-(p-tolylsulfonyl)-1,2,3,4-tetrahydro-pyrrolo[1,2-a]pyrazin-1-yl]-acetamide] | 91.2 | 99.7 |
| Cc1ccc(S(=O)(=O)N2CCn3cccc3C2CC(=O)NC2CCc3cc(CN(C)C)ccc3C2)cc1Cl (stereo not shown) [Example 115, 2-[2-[(3-Chloro-4-methyl-phenyl)sulfonyl]-1,2,3,4-tetrahydro-pyrrolo[1,2-a]pyrazin-1-yl]-N-[6-(dimethylaminomethyl)-1,2,3,4-tetrahydro-naphthalen-2-yl]-acetamide] | 102 | 99.8 |
| CN(C)Cc1ccc2c(c1)CCCC2NC(=O)CC1c2cccn2CCN1S(=O)(=O)c1cccc(C(F)(F)F)c1 (stereo not shown) [Example 124, N-[6-(Dimethylaminomethyl)-1,2,3,4-tetrahydro-naphthalen-1-yl]-2-[2-[[3-(trifluoromethyl)phenyl]sulfonyl]-1,2,3,4-tetrahydro-pyrrolo[1,2-a]pyrazin-1-yl]-acetamide] | 97.3 | 99.7 |
| Cc1ccc(S(=O)(=O)N2CCn3cccc3C2CC(=O)NC2CCCc3cc(CN4CCN(C)CC4)ccc32)cc1 (stereo not shown) [Example 78, N-[6-[(4-Methyl-piperazin-1-yl)-methyl]-1,2,3,4-tetrahydro-naphthalen-1-yl]-2-[2-(p-tolylsulfonyl)-1,2,3,4-tetrahydro-pyrrolo[1,2-a]pyrazin-1-yl]-acetamide] | 86.2 | 99.8 |
| Cc1ccc(S(=O)(=O)N2CCn3cccc3C2CC(=O)NC2CCc3cc(CNC(C)(C)C)ccc3C2)cc1Cl (stereo not shown) [Example 60, N-[6-[(tert-Butylamino)-methyl]-1,2,3,4-tetrahydro-naphthalen-2-yl]-2-[2-[(3-chloro-4-methyl-phenyl)sulfonyl]-1,2,3,4-tetrahydro-pyrrolo[1,2-a]pyrazin-1-yl]-acetamide] | 99.5 | 99.8 |
| O=C(CC1c2cccn2CCN1S(=O)(=O)c1cccc(C(F)(F)F)c1)NC1CCCc2cc(CN3CCCCC3)ccc21 (stereo not shown) [Example 89, N-[6-(Piperidin-1-yl-methyl)-1,2,3,4-tetrahydro-naphthalen-1-yl]-2-[2-[[3-(trifluoromethyl)phenyl]sulfonyl]-1,2,3,4-tetrahydro-pyrrolo[1,2-a]pyrazin-1-yl]-acetamide] | 99.1 | 100 |
| Cc1ccc(S(=O)(=O)N2CCn3cccc3C2CC(=O)NC2CCc3cc(CN4CCOCC4)ccc3C2)cc1Cl (stereo not shown) [Example 66, 2-[2-[(3-Chloro-4-methyl-phenyl)sulfonyl]-1,2,3,4-tetrahydro-pyrrolo[1,2-a]pyrazin-1-yl]-N-[6-(morpholin-4-yl-methyl)-1,2,3,4-tetrahydro-naphthalen-2-yl]-acetamide] | 100 | 99.9 |
| O=C(COCC1c2cccn2CCN1S(=O)(=O)c1ccccc1C(F)(F)F)N1CCC(Oc2ccncc2)CC1 (stereo not shown) [Example 5, 1-(4-(Pyridin-4-yloxy)piperidin-1-yl)-2-((2-(2-(trifluoromethyl)phenylsulfonyl)-1,2,3,4-tetrahydropyrrolo[1,2-a]pyrazin-1-yl)methoxy)ethanone] | 102 | 99.8 |
| CNCc1ccc2c(c1)CCCC2NC(=O)CC1c2cccn2CCN1S(=O)(=O)c1ccc2cc(OC)ccc2c1 (stereo not shown) [Example 134, 2-[2-[(6-Methoxy-naphthalen-2-yl)sulfonyl]-1,2,3,4-tetrahydro-pyrrolo[1,2-a]pyrazin-1-yl]-N-[6-(methylamino-methyl)-1,2,3,4-tetrahydro-naphthalen-1-yl]-acetamide] | 103 | 99.8 |
| O=C(COCC1c2cccn2CCN1S(=O)(=O)c1ccccc1C(F)(F)F)N1CCC2(CC1)CCN(c1ccncc1)CC2 (stereo not shown) [Example 11, 1-(9-(Pyridin-4-yl)-3,9-diazaspiro[5.5]undecan-3-yl)-2-((2-(2-(trifluoromethyl)phenylsulfonyl)-1,2,3,4-tetrahydropyrrolo[1,2-a]pyrazin-1-yl)methoxy)ethanone] | 98.1 | 99.9 |
| CN(CCC1CCN(c2ccncc2)CC1)C(=O)COCC1c2cccn2CCN1S(=O)(=O)c1ccccc1C(F)(F)F (stereo not shown) [Example 12, N-Methyl-N-(2-(1-(pyridin-4-yl)piperidin-4-yl)ethyl)-2-((2-(2-(trifluoromethyl)phenylsulfonyl)-1,2,3,4-tetrahydropyrrolo[1,2-a]pyrazin-1-yl)methoxy)acetamide] | 99.3 | 99.5 |
| Cc1ccc(S(=O)(=O)N2CCn3cccc3C2CC(=O)N[C@H](C)c2ccc(CNC(C)(C)C)cc2)cc1 (stereo partly drawn) [Example 46, N-[(1R)-1-[4-[(tert-Butylamino)-methyl]-phenyl]-ethyl]-2-[2-(p-tolylsulfonyl)-1,2,3,4-tetrahydro-pyrrolo[1,2-a]pyrazin-1-yl]-acetamide] | 29 | 55.8 |
| Cc1ccc(S(=O)(=O)N2CCn3cccc3C2CC(=O)NC2CCc3cc(CN4C5CCCC4CC5)ccc3C2)cc1Cl (stereo not shown) [Example 71, N-[6-(8-Azabicyclo[3.2.1]octan-8-yl-methyl)-1,2,3,4-tetrahydro-naphthalen-2-yl]-2-[2-[(3-chloro-4-methyl-phenyl)sulfonyl]-1,2,3,4-tetrahydro-pyrrolo[1,2-a]pyrazin-1-yl]-acetamide] | 102 | 99.8 |
| COc1cc(C)c(S(=O)(=O)N2CCn3cccc3C2COCC(=O)N2CCC(Oc3ccncc3)C2)c(C)c1 (stereo not shown) [Example 38, 2-[[2-[(4-Methoxy-2,6-dimethyl-phenyl)sulfonyl]-1,2,3,4-tetrahydro-pyrrolo[1,2-a]pyrazin-1-yl]-methoxy]-1-(3-pyridin-4-yloxy-pyrrolidin-1-yl)-ethanone] | 104 | 98.1 |
| COc1ccc2cc(S(=O)(=O)N3CCn4cccc4C3CC(=O)NC3CCCc4cc(CN(C)C)ccc43)ccc2c1 (stereo not shown) [Example 106, N-[6-(Dimethylaminomethyl)-1,2,3,4-tetrahydro-naphthalen-1-yl]-2-[2-[(6-methoxy-naphthalen-2-yl)sulfonyl]-1,2,3,4-tetrahydro-pyrrolo[1,2-a]pyrazin-1-yl]-acetamide] | 101 | 100 |
| COc1ccc2cc(S(=O)(=O)N3CCn4cccc4C3CC(=O)NC3CCCc4cc(CN5CCCCC5)ccc43)ccc2c1 (stereo not shown) [Example 128, 2-[2-[(6-Methoxy-naphthalen-2-yl)sulfonyl]-1,2,3,4-tetrahydro-pyrrolo[1,2-a]pyrazin-1-yl]-N-[6-(piperidin-1-yl-methyl)-1,2,3,4-tetrahydro-naphthalen-1-yl]-acetamide] | 103 | 99.8 |
| O=C(CC1c2cccn2CCN1S(=O)(=O)c1cccc(C(F)(F)F)c1)NC1CCc2cc(CN3CCCc4ccccc43)ccc2C1 (stereo not shown) [Example 69, N-[6-(1,2,3,4-Tetrahydro-quinolin-1-yl-methyl)-1,2,3,4-tetrahydro-naphthalen-2-yl]-2-[2-[[3-(trifluoromethyl)phenyl]sulfonyl]-1,2,3,4-tetrahydro-pyrrolo[1,2-a]pyrazin-1-yl]-acetamide] | 90.7 | 62.8 |
| COc1ccc2cc(S(=O)(=O)N3CCn4cccc4C3CC(=O)NC3CCCc4cc(CN5CCN(C)CC5)ccc43)ccc2c1 (stereo not shown) [Example 117, 2-[2-[(6-Methoxy-naphthalen-2-yl)sulfonyl]-1,2,3,4-tetrahydro-pyrrolo[1,2-a]pyrazin-1-yl]-N-[6-[(4-methyl-piperazin-1-yl)-methyl]-1,2,3,4-tetrahydro-naphthalen-1-yl]-acetamide] | 98.8 | 100 |
| COc1cc(C)c(S(=O)(=O)N2CCn3cccc3C2COCC(=O)N2CCC(N3CC4CC3CN4C)CC2)c(C)c1 (stereo not shown) [Example 40, 2-[[2-[(4-Methoxy-2,6-dimethyl-phenyl)sulfonyl]-1,2,3,4-tetrahydro-pyrrolo[1,2-a]pyrazin-1-yl]-methoxy]-1-[4-(3-methyl-3,6-diazabicyclo[2.2.1]heptan-6-yl)-piperidin-1-yl]-ethanone] | 94.9 | 99.6 |
| CCC(C)NCc1ccc2c(c1)CCC(NC(=O)CC1c3cccn3CCN1S(=O)(=O)c1ccc3cc(OC)ccc3c1)C2 (stereo not shown) [Example 121, 2-[2-[(6-Methoxy-naphthalen-2-yl)sulfonyl]-1,2,3,4-tetrahydro-pyrrolo[1,2-a]pyrazin-1-yl]-N-[6-[(1-methyl-propylamino)-methyl]-1,2,3,4-tetrahydro-naphthalen-2-yl]-acetamide] | 99.5 | 99.9 |
